One series concerns the target T1, TaGLDH-D1 (Triticum aestivum, UniProt W5FUB4).
T1 construct: gene LOC123120310; crude mitochondrial fraction
In words: cytochrome c reduction, absorbance at […] nm, crude mitochondrial fraction. In kind it is biochemical. As to conditions: 4 μM L-GalL, 60 μM cytochrome c, 50 mM Tris-HCl pH 8.0, 0.15% Triton X-100; against PEBV:GUS control.

The next series has as its target T2, TaGLDH-B1 (Triticum aestivum, UniProt W5FJN8).
T2 construct: gene LOC123111215; crude mitochondrial fraction
Described as above. In kind it is biochemical. Conditions: 4 μM L-GalL, 60 μM cytochrome c, 50 mM Tris-HCl pH 8.0, 0.15% Triton X-100; against PEBV:GUS control.

Substrate in the series “purified protein”: O=C1O[C@H]([C@@H](O)CO)[C@@H](O)[C@@H]1O
In words: purified protein. The format is biochemical, Triticum aestivum. As to conditions: 60 μM cytochrome c, 25 mM Tris-HCl pH 8.0, 25 mM NaCl.

T2 sequence (W5FJN8 entry or part of it): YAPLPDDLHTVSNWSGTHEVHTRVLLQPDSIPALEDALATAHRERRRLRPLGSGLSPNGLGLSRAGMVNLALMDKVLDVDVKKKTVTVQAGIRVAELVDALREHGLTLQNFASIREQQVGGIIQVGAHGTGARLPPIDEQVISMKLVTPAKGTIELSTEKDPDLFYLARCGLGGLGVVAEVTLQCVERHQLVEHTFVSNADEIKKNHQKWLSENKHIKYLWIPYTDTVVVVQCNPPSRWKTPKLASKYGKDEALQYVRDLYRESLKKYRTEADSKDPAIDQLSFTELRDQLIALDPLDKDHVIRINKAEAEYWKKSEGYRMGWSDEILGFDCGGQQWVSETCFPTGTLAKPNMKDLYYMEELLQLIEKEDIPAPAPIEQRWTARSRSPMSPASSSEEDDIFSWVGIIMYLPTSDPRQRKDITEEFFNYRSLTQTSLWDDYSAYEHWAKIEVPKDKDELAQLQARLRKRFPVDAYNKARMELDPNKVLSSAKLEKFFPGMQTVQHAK
T1 sequence (W5FUB4 entry or part of it): as the sequence (W5FJN8 entry or part of it) above, with R133K, T158R, T241A, Y256H, I292L, S395C counted along it

On to `O=C1O[C@H]([C@@H](O)CO)[C@@H](O)[C@@H]1O` [L-galactono-1,4-lactone], for which the “total GLDH activity” value at TaGLDH-D1 was “GLDH activity level was significantly higher in the leaves infected by PEBV:A1, PEBV:B1 or PEBV:D1”; at TaGLDH-B1, “GLDH activity level was significantly higher in the leaves infected by PEBV:A1, PEBV:B1 or PEBV:D1”.

B1: TaGLDH-A1a (wild-type allele of TaGLDH-A1) (Triticum aestivum; DEL501-501) (protein)
chain: YAPLPDDLHTVSNWSGTHEVHTRVLLQPDSIPALEDALATAHRERRRLRPLGSGLSPNGLGLSRAGMVNLALMDKVLDVDVKKKTVTVQAGIRVAELVDALSKHGLTLQNFASIREQQVGGIIQVGAHGTGARLPPIDEQVISMKLVTPAKGTIELSREKNPDLFYLARCGLGGLGVVAEVTLQCVERHQLVEHTFVSNADEIKKNHQNWLSENKHIKYLWIPYTDTVVVVQCNPPSRWKTPKLASKYVKDEALQHVRDLYRESLKKYRTEADSKDPAIDQLSFTELRDQLLALDPLDKDHVIRINKAEAEYWKKSEGYRMCWSDEILGFDCGGQQWVSETCFPTGTLAKPNMKDLYYMEELLQLIEEEDIPAPAPIEQRWTAHSRSPMSPASSSEEDDIFSWVGIIMYLPTSDPRQRKDITEFFNYRSLTQTSLWDDYSAYEHWAKIEVPKDKDELAQLQARLRKRFPVDAYNKARMELDPNKVLSSAKLEKFFPGMQTVQHAR
notes: without first 78 residues (putative mitochondrial targeting peptide), N-terminal His tag, pET-30a, E. coli
With B1, the Km in the series “purified protein” (natural allele TaGLDH-A1b (Glu501 absent), cDNA from cv. Kashibaipi) amounted to 181.0 ± 67.1 µM.

B2: TaGLDH-A1a (wild-type allele of TaGLDH-A1) (Triticum aestivum) (protein)
chain: YAPLPDDLHTVSNWSGTHEVHTRVLLQPDSIPALEDALATAHRERRRLRPLGSGLSPNGLGLSRAGMVNLALMDKVLDVDVKKKTVTVQAGIRVAELVDALSKHGLTLQNFASIREQQVGGIIQVGAHGTGARLPPIDEQVISMKLVTPAKGTIELSREKNPDLFYLARCGLGGLGVVAEVTLQCVERHQLVEHTFVSNADEIKKNHQNWLSENKHIKYLWIPYTDTVVVVQCNPPSRWKTPKLASKYVKDEALQHVRDLYRESLKKYRTEADSKDPAIDQLSFTELRDQLLALDPLDKDHVIRINKAEAEYWKKSEGYRMCWSDEILGFDCGGQQWVSETCFPTGTLAKPNMKDLYYMEELLQLIEEEDIPAPAPIEQRWTAHSRSPMSPASSSEEDDIFSWVGIIMYLPTSDPRQRKDITEEFFNYRSLTQTSLWDDYSAYEHWAKIEVPKDKDELAQLQARLRKRFPVDAYNKARMELDPNKVLSSAKLEKFFPGMQTVQHAR
notes: as for B1
Consider B2, for which, in “purified protein”, the Km is 61.0 ± 5.4 µM.

For orientation: Km means the substrate concentration at which the rate is half of its maximum.

The values above are taken from PMC4957090, “A novel allele of L-galactono-1,4-lactone dehydrogenase is associated with enhanced drought tolerance through affecting stomatal aperture in common wheat” (Scientific Reports, 2016).
